The record followed here is article PMC2673089 (Journal of pharmaceutical sciences, 2008).

The target in data set [1] is T1, rat CYP2C11 (Rattus norvegicus, UniProt P08683).
T1 sequence (P08683 1-500): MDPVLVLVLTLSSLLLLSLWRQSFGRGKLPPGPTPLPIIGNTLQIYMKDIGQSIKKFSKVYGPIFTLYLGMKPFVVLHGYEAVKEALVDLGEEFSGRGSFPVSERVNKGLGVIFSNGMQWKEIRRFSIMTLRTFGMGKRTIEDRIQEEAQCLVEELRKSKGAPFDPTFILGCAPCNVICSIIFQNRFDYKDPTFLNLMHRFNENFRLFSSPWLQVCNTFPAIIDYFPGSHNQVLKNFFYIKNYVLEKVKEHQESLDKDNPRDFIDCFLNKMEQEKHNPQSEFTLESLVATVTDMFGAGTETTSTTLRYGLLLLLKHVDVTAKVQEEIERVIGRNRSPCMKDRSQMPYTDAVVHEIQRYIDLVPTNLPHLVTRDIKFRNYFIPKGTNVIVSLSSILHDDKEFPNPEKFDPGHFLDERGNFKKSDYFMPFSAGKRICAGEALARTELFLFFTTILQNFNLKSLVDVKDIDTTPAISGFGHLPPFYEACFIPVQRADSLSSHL
Kind of data set: Metabolism by recombinant rat CYP2C11 Supersomes. The format is in vitro ADME.

The target of data set [2] is T2, rat CYP2D1 (Rattus norvegicus, UniProt P10633).
T2 sequence (P10633 1-504): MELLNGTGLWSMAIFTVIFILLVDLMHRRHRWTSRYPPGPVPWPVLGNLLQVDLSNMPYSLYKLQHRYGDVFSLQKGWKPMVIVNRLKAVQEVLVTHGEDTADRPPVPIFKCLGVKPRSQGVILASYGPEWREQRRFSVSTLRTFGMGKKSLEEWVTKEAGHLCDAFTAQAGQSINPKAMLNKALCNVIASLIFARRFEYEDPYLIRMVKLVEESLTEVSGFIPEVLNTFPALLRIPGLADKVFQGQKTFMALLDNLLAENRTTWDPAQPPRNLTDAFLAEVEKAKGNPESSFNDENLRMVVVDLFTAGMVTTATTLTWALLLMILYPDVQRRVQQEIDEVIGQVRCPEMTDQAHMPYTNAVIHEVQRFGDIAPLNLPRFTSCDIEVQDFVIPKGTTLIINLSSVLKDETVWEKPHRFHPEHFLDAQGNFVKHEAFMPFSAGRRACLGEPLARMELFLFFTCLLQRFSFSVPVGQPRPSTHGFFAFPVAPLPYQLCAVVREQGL
Put plainly: Metabolism by recombinant rat CYP2D1 Supersomes. The data set is classed as in vitro ADME.

On to `CC(C)[C@@H](N)CN1C2CCC1CC(OC(c1ccc(F)cc1)c1ccc(F)cc1)C2` (stereo partly drawn) [GA2-50, N-((R)-2″-amino-3″-methyl-n-butyl)-3α-[(bis-4′-fluorophenyl)methoxy]tropane], for which the “Intrinsic Clearance” value is 0.23 ± 0.01 (a) microliters per minute per picomole of P450 in data set [1] (Rat CYP 2C11 50 pmol/mL, 4 μM) and 0.11 ± 0.02 (c) microliters per minute per picomole of P450 in data set [2] (Rat CYP 2D1 50 pmol/mL, 4 μM). Also, the “Substrate disappearance after 60 min incubation vs control” value in data set [1] (rat CYP2C11, 10 μM, 50 pmol/mL P450, p < 0.05) is “statistically significant disappearance”; in data set [2] (rat CYP2D1, 10 μM, 50 pmol/mL P450, p < 0.05), “statistically significant disappearance”. The “Intrinsic clearance, fold lower than 4′,4″-diCl BZT” value in data set [1] (rat CYP2C11, comparator values ref 26) worked out at 6.3 fold.
